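Protocol summary: plate cells (96-well), add compound at 5 concentrations, incubate 48 h, interpolate endpoints linearly. The concentration for 50% growth inhibition is given as GI50. TGI: total growth inhibition.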
Assays:
Assay in all cases: NCI tumour cell line growth inhibition, 48 h
[1] = system: HCC-2998 colon
[2] = system: SR leukemia
[3] = system: MDA-MB-231 breast
[4] = system: SN12C renal
[5] = system: HCT-116 colon
[6] = system: OVCAR-5 ovarian
[7] = system: U251 CNS
[8] = system: SF-268 CNS
[9] = system: HOP-62 NSCLC
[10] = system: CAKI-1 renal
[11] = system: RXF 393 renal
[12] = system: K-562 leukemia
[13] = system: A549 NSCLC
[14] = system: HS 578T breast
[15] = system: DU-145 prostate
[16] = system: SF-539 CNS
[17] = system: IGROV1 ovarian
[18] = system: EKVX NSCLC
[19] = system: SNB-75 CNS
[20] = system: KM12 colon
[21] = system: SK-MEL-5 melanoma
[22] = system: UACC-62 melanoma
[23] = system: SK-MEL-2 melanoma
[24] = system: 786-0 renal
[25] = system: NCI-H23 lung
[26] = system: CCRF-CEM leukemia
[27] = system: RPMI-8226 leukemia
[28] = system: SF-295 CNS
[29] = system: A498 renal
[30] = system: OVCAR-4 ovarian
[31] = system: HT29 colon
[32] = system: T-47D breast
[33] = system: MALME-3M melanoma
[34] = system: BT-549 breast
[35] = system: NCI-H522 lung
[36] = system: SK-MEL-28 melanoma
[37] = system: NCI/ADR-RES ovarian
[38] = system: OVCAR-3 ovarian
[39] = system: M14 melanoma
[40] = system: SK-OV-3 ovarian
[41] = system: TK-10 renal
[42] = system: HL-60(TB) leukemia
[43] = system: LOX IMVI melanoma
[44] = system: UO-31 renal
[45] = system: MDA-MB-435
[46] = system: HCT-15 colon
[47] = system: PC-3 prostate
[48] = system: UACC-257 melanoma
[49] = system: HOP-92 NSCLC
[50] = system: MCF7 breast
[51] = system: SNB-19 CNS
[52] = system: SW-620 colon
[53] = system: NCI-H460 lung
[54] = system: NCI-H226 lung
[55] = system: OVCAR-8 ovarian
[56] = system: ACHN renal
[57] = system: MOLT-4 leukemia
[58] = system: COLO 205 colon

Molecule `O=C1/C(=C\c2ccccn2)c2ccccc2N1c1c(Cl)cccc1Cl` has a GI50 [1] of 1860 nM, a TGI [1] of 3300 nM and a GI50 [2] of 5070 nM. The TGI [2] was over 100000 nM, the GI50 [3] was 2170 nM and the TGI [3] was 5740 nM. For the same molecule, the GI50 [4] was 2650 nM, the TGI [4] was 12500 nM and the GI50 [5] was 1700 nM. For the same molecule, the TGI [5] was 3320 nM, the GI50 [6] was 2050 nM and the TGI [6] was 4810 nM. For the same molecule, the GI50 [7] was 1840 nM, the TGI [7] was 3680 nM and the GI50 [8] was 2960 nM. It also gave a TGI [8] of 9540 nM, a GI50 [9] of 2070 nM and a TGI [9] of 5040 nM. For the same molecule, the GI50 [10] was 1830 nM, the GI50 [11] was 1400 nM and the TGI [11] was 2730 nM. The GI50 [12] was 3890 nM, the TGI [12] was over 100000 nM and the GI50 [13] was 2290 nM. The TGI [13] was 14600 nM, the GI50 [14] was 3920 nM and the TGI [14] was 37400 nM. The GI50 [15] was 1940 nM, the TGI [15] was 3950 nM and the GI50 [16] was 2440 nM. It also gave a TGI [16] of 6330 nM, a GI50 [17] of 2260 nM and a TGI [17] of 6920 nM. For the same molecule, the GI50 [18] was 3470 nM, the TGI [18] was 17800 nM and the GI50 [19] was 2010 nM. It also gave a TGI [19] of 15400 nM, a GI50 [20] of 1690 nM and a TGI [20] of 3220 nM. For the same molecule, the GI50 [21] was 1610 nM, the TGI [21] was 3030 nM and the GI50 [22] was 1620 nM. It also gave a TGI [22] of 3680 nM, a GI50 [23] of 2530 nM and a TGI [23] of 6320 nM. The GI50 [24] was 1840 nM, the TGI [24] was 3490 nM and the GI50 [25] was 3290 nM. For the same molecule, the TGI [25] was 15300 nM, the GI50 [26] was 3310 nM and the TGI [26] was over 100000 nM. For the same molecule, the GI50 [27] was 2800 nM, the TGI [27] was over 22400 nM and the GI50 [28] was 1960 nM. For the same molecule, the TGI [28] was 5720 nM, the GI50 [29] was 2100 nM and the TGI [29] was 5980 nM. It also gave a GI50 [30] of 3140 nM, a TGI [30] of 26800 nM and a GI50 [31] of 2530 nM. For the same molecule, the TGI [31] was 5750 nM, the GI50 [32] was 2600 nM and the TGI [32] was 9660 nM. For the same molecule, the GI50 [33] was 1740 nM, the TGI [33] was 4890 nM and the GI50 [34] was 2210 nM. The TGI [34] was 4880 nM, the GI50 [35] was 1980 nM and the TGI [35] was 4810 nM. It also gave a GI50 [36] of 1840 nM, a TGI [36] of 4030 nM and a GI50 [37] of 2510 nM. It also gave a TGI [37] of 6950 nM, a GI50 [38] of 1660 nM and a TGI [38] of 3250 nM. It also gave a GI50 [39] of 1780 nM, a TGI [39] of 3720 nM and a GI50 [40] of 3010 nM. It also gave a TGI [40] of 10200 nM, a GI50 [41] of 3390 nM and a TGI [41] of 12700 nM. It also gave a GI50 [42] of 3750 nM, a TGI [42] of over 29600 nM and a GI50 [43] of 1680 nM. For the same molecule, the TGI [43] was 3210 nM, the GI50 [44] was 1470 nM and the TGI [44] was 3110 nM. It also gave a GI50 [45] of 1930 nM, a TGI [45] of 5030 nM and a GI50 [46] of 2110 nM. The TGI [46] was 5300 nM, the GI50 [47] was 2790 nM and the TGI [47] was over 26300 nM. The GI50 [48] was 2200 nM, the TGI [48] was 6190 nM and the TGI [49] was 6280 nM. It also gave a GI50 [50] of 2410 nM, a TGI [50] of 14300 nM and a GI50 [51] of 2280 nM. For the same molecule, the TGI [51] was 6250 nM, the GI50 [52] was 1890 nM and the TGI [52] was 3690 nM. It also gave a GI50 [53] of 1880 nM, a TGI [53] of 3650 nM and a GI50 [54] of 1700 nM. It also gave a TGI [54] of 3420 nM, a GI50 [55] of 2410 nM and a TGI [55] of 8340 nM. The GI50 [56] was 1820 nM, the TGI [56] was 3910 nM and the GI50 [57] was 4200 nM. It also gave a TGI [57] of over 65700 nM, a GI50 [58] of 2040 nM and a TGI [58] of 4810 nM.
For `CC(C)(C)[Si](C)(C)OC1[C@@H](O[Si](C)(C)C(C)(C)C)[C@@H](CNC(=O)NC(=O)CCl)O[C@H]1n1cnc2c(NC(=O)Nc3ccccc3)ncnc21` (stereo not given in full), the GI50 [1] was 967 nM, the TGI [1] was 2060 nM and the GI50 [2] was 117 nM. For the same molecule, the TGI [2] was 446 nM, the GI50 [3] was 507 nM and the TGI [3] was 1300 nM. For the same molecule, the GI50 [4] was 786 nM, the TGI [4] was 1690 nM and the GI50 [5] was 719 nM. For the same molecule, the TGI [5] was 1510 nM, the GI50 [6] was 911 nM and the TGI [6] was 2080 nM. For the same molecule, the GI50 [7] was 510 nM, the TGI [7] was 1210 nM and the GI50 [8] was 665 nM. It also gave a TGI [8] of 1440 nM, a GI50 [9] of 348 nM and a TGI [9] of 953 nM. The GI50 [10] was 989 nM, the TGI [10] was 2820 nM and the GI50 [11] was 614 nM. For the same molecule, the TGI [11] was 1270 nM, the GI50 [12] was 1090 nM and the TGI [12] was 3380 nM. It also gave a GI50 [13] of 1190 nM, a TGI [13] of 3510 nM and a GI50 [14] of 1300 nM. The TGI [14] was 12500 nM, the GI50 [15] was 1730 nM and the TGI [15] was 5320 nM. For the same molecule, the GI50 [16] was 837 nM, the TGI [16] was 1580 nM and the GI50 [17] was 111 nM. It also gave a TGI [17] of 233 nM, a GI50 [18] of 1010 nM and a TGI [18] of 2980 nM. It also gave a GI50 [19] of 536 nM, a TGI [19] of 1280 nM and a GI50 [20] of 1040 nM. It also gave a TGI [20] of 3640 nM, a GI50 [21] of 833 nM and a TGI [21] of 1550 nM. The GI50 [22] was 793 nM, the TGI [22] was 1600 nM and the GI50 [23] was 1130 nM. For the same molecule, the TGI [23] was 2010 nM, the GI50 [24] was 310 nM and the TGI [24] was 633 nM. For the same molecule, the GI50 [25] was 756 nM, the TGI [25] was 1840 nM and the GI50 [26] was 44.1 nM. It also gave a TGI [26] of 125 nM, a GI50 [27] of 167 nM and a TGI [27] of 682 nM. The GI50 [28] was 235 nM, the TGI [28] was 922 nM and the GI50 [29] was 902 nM. The TGI [29] was 2110 nM, the GI50 [30] was 700 nM and the TGI [30] was 1570 nM. For the same molecule, the GI50 [31] was 330 nM, the TGI [31] was 1050 nM and the GI50 [32] was 1010 nM. For the same molecule, the TGI [32] was 2170 nM, the GI50 [33] was 796 nM and the TGI [33] was 1620 nM. For the same molecule, the GI50 [34] was 962 nM, the TGI [34] was 1790 nM and the GI50 [35] was 96 nM. The TGI [35] was 196 nM, the GI50 [36] was 916 nM and the TGI [36] was 1690 nM. It also gave a GI50 [37] of 1240 nM, a TGI [37] of 8030 nM and a GI50 [38] of 446 nM. For the same molecule, the TGI [38] was 1490 nM, the GI50 [39] was 978 nM and the TGI [39] was 1980 nM. For the same molecule, the GI50 [40] was 799 nM, the TGI [40] was 1500 nM and the GI50 [41] was 978 nM. It also gave a TGI [41] of 1880 nM, a GI50 [42] of 166 nM and a TGI [42] of 488 nM. The GI50 [43] was 82.9 nM, the TGI [43] was 180 nM and the GI50 [44] was 76.3 nM. For the same molecule, the TGI [44] was 200 nM, the GI50 [45] was 835 nM and the TGI [45] was 1750 nM. The GI50 [46] was 1770 nM, the TGI [46] was 6560 nM and the GI50 [47] was 381 nM. It also gave a TGI [47] of 1190 nM, a GI50 [48] of 884 nM and a TGI [48] of 1890 nM. It also gave a GI50 [49] of 211 nM, a TGI [49] of 900 nM and a GI50 [50] of 760 nM. The TGI [50] was 1620 nM, the GI50 [51] was 1110 nM and the TGI [51] was 3960 nM. For the same molecule, the GI50 [52] was 441 nM, the TGI [52] was 1360 nM and the GI50 [53] was 859 nM. It also gave a TGI [53] of 1740 nM, a GI50 [54] of 651 nM and a TGI [54] of 1300 nM. It also gave a GI50 [55] of 307 nM, a TGI [55] of 1420 nM and a GI50 [56] of 782 nM. For the same molecule, the TGI [56] was 1540 nM, the GI50 [57] was 339 nM and the TGI [57] was 913 nM. The GI50 [58] was 1410 nM and the TGI [58] was 3500 nM.

From PubChem BioAssay (NCI)
